From patent US11098032B2, “Pyran dervatives as CYP11A1 (cytochrome P450 monooxygenase 11A1) inhibitors” (ORION CORPORATION, priority 2016, dated 2021)

Target: T1, CYP11A1 (Homo sapiens, UniProt P05108)
T1 construct: human H295R adrenocortical carcinoma cell line was used as source of enzyme; endogenous in cells; host or cells: H295R human adrenocortical carcinoma cells
T1 sequence (P05108 40-521): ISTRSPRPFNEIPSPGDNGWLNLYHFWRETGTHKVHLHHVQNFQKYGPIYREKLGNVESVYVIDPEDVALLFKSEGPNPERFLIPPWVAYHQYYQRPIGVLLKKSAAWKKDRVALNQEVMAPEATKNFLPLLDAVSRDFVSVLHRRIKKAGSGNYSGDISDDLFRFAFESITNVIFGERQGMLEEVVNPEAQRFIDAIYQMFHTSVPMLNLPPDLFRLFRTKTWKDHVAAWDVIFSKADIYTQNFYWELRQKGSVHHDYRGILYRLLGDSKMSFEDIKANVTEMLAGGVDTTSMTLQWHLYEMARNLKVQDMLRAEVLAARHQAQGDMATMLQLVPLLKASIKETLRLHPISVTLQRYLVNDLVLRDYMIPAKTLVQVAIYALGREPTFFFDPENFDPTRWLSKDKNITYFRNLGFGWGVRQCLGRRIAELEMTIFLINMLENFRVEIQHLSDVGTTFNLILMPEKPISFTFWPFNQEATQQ
Assay: CYP11A1 inhibition: modified isocaproic acid release assay (IARA) in H295R cells
Assay type: cell-based
Conditions: human H295R adrenocortical carcinoma cells treated three days, 3 nM [24,25-3H]-labelled cholesterol, 1% DMSO, 10 concentrations in duplicates; read-out: IC50 of the test compounds on CYP11A1 inhibition
Summary of the method: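 H295R adrenocortical cells treated three days with test compounds at 10 concentrations in duplicate plus 3 nM [24,25-3H]-cholesterol, 1% DMSO final. Released radiolabelled isocaproic acid measured by scintillation counting after dextran-coated charcoal extraction; IC50 determined.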

SMILES | IC50
CCS(=O)(=O)N1CCC(COc2coc(CN3Cc4ccccc4C3)cc2=O)CC1 [Compound 188, 5-((1-(Ethylsulfonyl)piperidin-4-yl)methoxy)-2-(isoindolin-2-ylmethyl)-4H-pyran-4-one] | < 150 nM
CS(=O)(=O)c1ccc(COc2coc(CN3Cc4ccc([N+](=O)[O-])cc4C3)cc2=O)cc1 [Compound 68, 5-((4-(Methylsulfonyl)benzyl)oxy)-2-((5-nitroisoindolin-2-yl)methyl)-4H-pyran-4-one] | 150 to 300 nM
CCN(CC)S(=O)(=O)c1ccc(COc2coc(CN3Cc4ccccc4C3)cc2=O)cc1 [Compound 4, N,N-Diethyl-4-(((6-(isoindolin-2-ylmethyl)-4-oxo-4H-pyran-3-yl)oxy)methyl)-benzenesulfonamide] | 150 to 300 nM
CS(=O)(=O)CC(=O)N1CCC(COc2coc(CN3Cc4ccccc4C3)cc2=O)CC1 [Compound 238, 2-(Isoindolin-2-ylmethyl)-5-((1-(2-(methylsulfonyl)acetyl)piperidin-4-yl)-methoxy)-4H-pyran-4-one] | < 150 nM
O=C(N1CCOCC1)N1CCC(COc2coc(CN3Cc4ccccc4C3)cc2=O)CC1 [Compound 232, 2-(Isoindolin-2-ylmethyl)-5-((1-(morpholine-4-carbonyl)piperidin-4-yl)methoxy)-4H-pyran-4-one] | < 150 nM
CN(C)C(=O)c1c(F)cc(COc2coc(CN3Cc4ccccc4C3)cc2=O)cc1F [Compound 174, 2,6-Difluoro-4-(((6-(isoindolin-2-ylmethyl)-4-oxo-4H-pyran-3-yl)oxy)methyl)-N,N-dimethylbenzamide] | 150 to 300 nM
CS(=O)(=O)N1CCC(F)(COc2coc(CN3Cc4ccccc4C3)cc2=O)CC1 [Compound 235, 5-((4-Fluoro-1-(methylsulfonyl)piperidin-4-yl)methoxy)-2-(isoindolin-2-yl-methyl)-4H-pyran-4-one] | 150 to 300 nM
N=S(=O)(c1ccc(COc2coc(CN3Cc4ccccc4C3)cc2=O)cc1)C1CCC1 (stereo not shown) [Compound 71, 5-((4-(Cyclobutanesulfonimidoyl)benzyl)oxy)-2-(isoindolin-2-ylmethyl)-4H-pyran-4-one] | < 150 nM
CC(C)(O)c1ccc(COc2coc(CN3Cc4ccccc4C3)cc2=O)cc1 [Compound 49, 5-((4-(2-Hydroxypropan-2-yl)benzyl)oxy)-2-(isoindolin-2-ylmethyl)-4H-pyran-4-one] | < 150 nM
O=C(c1ccc(COc2coc(CN3Cc4ccccc4C3)cc2=O)cc1)N1CCCC1 [Compound 122, 2-(Isoindolin-2-ylmethyl)-5-((4-(pyrrolidine-1-carbonyl)benzyl)oxy)-4H-pyran-4-one] | < 150 nM
CNC(=O)c1ccc(COc2coc(CN3Cc4ccccc4C3)cc2=O)cc1 [Compound 62, 4-(((6-(Isoindolin-2-ylmethyl)-4-oxo-4H-pyran-3-yl)oxy)methyl)-N-methylbenzamide] | 301 to 2000 nM
COc1cc(COc2coc(CN3Cc4ccccc4C3)cc2=O)ccn1 [Compound 110, 2-(Isoindolin-2-ylmethyl)-5-((2-methoxypyridin-4-yl)methoxy)-4H-pyran-4-one] | 301 to 2000 nM
CS(=O)(=O)N1CCC(CCCOc2coc(CN3Cc4ccccc4C3)cc2=O)CC1 [Compound 213, 2-(Isoindolin-2-ylmethyl)-5-(3-(1-(methylsulfonyl)piperidin-4-yl)propoxy)-4H-pyran-4-one] | < 150 nM
CS(=O)(=O)N(C1CCC(COc2coc(CN3Cc4ccccc4C3)cc2=O)CC1)C1CC1 (stereo not shown) [Compound 219, N-Cyclopropyl-N-(4-(((6-(isoindolin-2-ylmethyl)-4-oxo-4H-pyran-3-yl)oxy)-methyl)cyclohexyl)methanesulfonamide] | < 150 nM
CS(=O)(=O)NCC1CCC(COc2coc(CN3Cc4ccccc4C3)cc2=O)CC1 (stereo not shown) [Compound 173, N-((4-(((6-(Isoindolin-2-ylmethyl)-4-oxo-4H-pyran-3-yl)oxy)methyl)cyclohexyl)-methyl)methanesulfonamide] | < 150 nM
CN(C)C(=O)N1CCC(COc2coc(CN3Cc4ccccc4C3)cc2=O)C1 (stereo not shown) [Compound 183, 3-(((6-(Isoindolin-2-ylmethyl)-4-oxo-4H-pyran-3-yl)oxy)methyl)-N,N-dimethyl-pyrrolidine-1-carboxamide] | 301 to 2000 nM
N#Cc1cccc(COc2coc(CN3CCc4ccccc4C3)cc2=O)c1 [Compound 50, 3-(((6-((3,4-Dihydroisoquinolin-2(1H)-yl)methyl)-4-oxo-4H-pyran-3-yl)oxy)-methyl)benzonitrile] | 301 to 2000 nM
O=C(c1ccc(COc2coc(CN3Cc4ccccc4C3)cc2=O)cc1)N1CCCCC1 [Compound 128, 2-(Isoindolin-2-ylmethyl)-5-((4-(piperidine-1-carbonyl)benzyl)oxy)-4H-pyran-4-one] | 150 to 300 nM
CCN(CCO)S(=O)(=O)c1ccc(COc2coc(CN3Cc4ccccc4C3)cc2=O)cc1 [Compound 21, N-Ethyl-N-(2-hydroxyethyl)-4-(((6-(isoindolin-2-ylmethyl)-4-oxo-4H-pyran-3-yl)oxy)methyl)benzenesulfonamide] | < 150 nM
O=c1cc(CN2Cc3ccccc3C2)occ1OCc1ccc(SC(F)(F)F)cc1 [Compound 3, 2-(Isoindolin-2-ylmethyl)-5-((4-((trifluoromethyl)thio)benzyl)oxy)-4H-pyran-4-one] | 301 to 2000 nM
O=c1cc(CN2Cc3ccccc3C2)occ1OCc1ccc(S(=O)(=O)C(F)F)cc1 [Compound 22, 5-((4-((Difluoromethyl)sulfonyl)benzyl)oxy)-2-(isoindolin-2-ylmethyl)-4H-pyran-4-one] | < 150 nM
CS(=O)(=O)c1ccc(COc2coc(CN3Cc4cc(F)c(F)cc4C3)cc2=O)cc1 [Compound 26, 2-((5,6-Difluoroisoindolin-2-yl)methyl)-5-((4-(methylsulfonyl)benzyl)oxy)-4H-pyran-4-one] | 150 to 300 nM
CN1Cc2cc(COc3coc(CN4Cc5ccccc5C4)cc3=O)ccc2C1=O [Compound 106, 5-(((6-(Isoindolin-2-ylmethyl)-4-oxo-4H-pyran-3-yl)oxy)methyl)-2-methyl-isoindolin-1-one] | 301 to 2000 nM
O=c1cc(CN2Cc3ccccc3C2)occ1OC[C@H]1CC[C@H](N2CCCS2(=O)=O)CC1 [Compound 216, 5-(((1r,4r)-4-(1,1-Dioxidoisothiazolidin-2-yl)cyclohexyl)methoxy)-2-(isoindolin-2-ylmethyl)-4H-pyran-4-one] | < 150 nM
CS(=O)(=O)N1CCC(COc2coc(CN3Cc4cc5c(cc4C3)OCO5)cc2=O)CC1 [Compound 209, 2-((5,7-Dihydro-6H-[1,3]dioxolo[4,5-f]isoindol-6-yl)methyl)-5-((1-(methyl-sulfonyl)piperidin-4-yl)methoxy)-4H-pyran-4-one] | 150 to 300 nM
COCCNS(=O)(=O)c1ccc(COc2coc(CN3Cc4ccccc4C3)cc2=O)cc1 [Compound 11, 4-(((6-(Isoindolin-2-ylmethyl)-4-oxo-4H-pyran-3-yl)oxy)methyl)-N-(2-methoxyethyl)benzenesulfonamide] | < 150 nM
O=C(NCCCO)c1ccc(COc2coc(CN3Cc4ccccc4C3)cc2=O)cc1 [Compound 282, N-(3-Hydroxypropyl)-4-(((6-(isoindolin-2-ylmethyl)-4-oxo-4H-pyran-3-yl)oxy)methyl)benzamide] | 301 to 2000 nM
O=c1cc(CN2Cc3ccccc3C2)occ1OCc1ccc(-n2ccnn2)cc1 [Compound 107, 5-((4-(1H-1,2,3-triazol-1-yl)benzyl)oxy)-2-(isoindolin-2-ylmethyl)-4H-pyran-4-one] | 150 to 300 nM
